{"source": "patent US11708348B2", "about": "“Protease inhibitors for treatment of coronavirus infections” (The Scripps Research Institute, priority 2021, dated 2023)", "tested_on": "SARS-CoV-2 strain USA-WA1/2020", "assay": "microbe, parasite or virus in culture", "type": "cell-based", "details": "Severe acute respiratory syndrome coronavirus 2, HeLa-ACE2, 24 h, read-out: EC50, uM (Hela)", "key": {"[1]": {"details": "HeLa-ACE2 cells, SARS-CoV-2 infection, 24 h, class symbols"}, "[2]": {"details": "HeLa-ACE2 cells, SARS-CoV-2 infection, 24 h"}}, "note": "Read-outs that look alike come from different tables or passages of the source."}
{"smiles": "CO[C@H](CC(C)C)C(=O)N1CC2(CC2)C[C@H]1C(=O)N[C@@H](C[C@@H]1CCNC1=O)C(=O)COC(F)(F)F", "note": "[Compound 381, (S)-5-((R)-2-methoxy-4-methylpentanoyl)-N-((S)-3-oxo-1-((S)-2-oxopyrrolidin-3-yl)-4-(trifluoromethoxy)butan-2-yl)-5-azaspiro[2.4]heptane-6-carboxamide]", "values": [{"measurement": "EC50", "setting": "[1]", "result": "< 0.05", "unit": "µM"}]}
{"smiles": "COc1cccc2[nH]c(C(=O)N[C@@H](CC(C)C)C(=O)N[C@@H](C[C@@H]3CCNC3=O)C(=O)COC(F)(F)F)cc12", "note": "[Compound 158, 4-methoxy-N—((S)-4-methyl-1-oxo-1-(((S)-3-oxo-1-((S)-2-oxopyrrolidin-3-yl)-4-(trifluoromethoxy)butan-2-yl)amino)pentan-2-yl)-1H-indole-2-carboxamide]", "values": [{"measurement": "EC50", "setting": "[1]", "result": "< 0.05", "unit": "µM"}]}
{"smiles": "CC(C)CC(=O)N1CC2(CC2)C[C@H]1C(=O)N[C@@H](C[C@@H]1CCNC1=O)C(=O)COC(F)(F)F", "note": "[Compound 707, (S)-5-(3-methylbutanoyl)-N-((S)-3-oxo-1-((S)-2-oxopyrrolidin-3-yl)-4-(trifluoromethoxy)butan-2-yl)-5-azaspiro[2.4]heptane-6-carboxamide]", "values": [{"measurement": "EC50", "setting": "[2]", "result": "0.05 to 0.2", "unit": "µM"}]}
{"smiles": "CC(C)C[C@H](NC(=O)C(=O)Nc1cccc(F)c1F)C(=O)N[C@@H](C[C@@H]1CCNC1=O)C(=O)COc1c(F)c(F)cc(F)c1F", "note": "[Compound 71, N1-(2,3-difluorophenyl)-N2-((S)-4-methyl-1-oxo-1-(((S)-3-oxo-1-((S)-2-oxopyrrolidin-3-yl)-4-(2,3,5,6-tetrafluorophenoxy)butan-2-yl)amino)pentan-2-yl)oxalamide]", "values": [{"measurement": "EC50", "setting": "[1]", "result": "0.05 to 0.2", "unit": "µM"}]}
{"smiles": "CC(C)C[C@@H](OC(=O)NC1CCCCC1)C(=O)N1CC2(CC2)C[C@H]1C(=O)N[C@@H](C[C@@H]1CCNC1=O)C(=O)COC(F)(F)F", "note": "[Compound 330, (R)-4-methyl-1-oxo-1-((S)-6-(((S)-3-oxo-l-((S)-2-oxopyrrolidin-3-yl)-4-(trifluoromethoxy)butan-2-yl)carbamoyl)-5-azaspiro[2.4]heptan-5-yl)pentan-2-yl cyclohexylcarbamate]", "values": [{"measurement": "EC50", "setting": "[1]", "result": "< 0.05", "unit": "µM"}]}
{"smiles": "CC(C)C[C@@H](OC(F)F)C(=O)N1CC2(CC2)C[C@H]1C(=O)N[C@@H](C[C@@H]1CCNC1=O)C(=O)COC(F)(F)F", "note": "[Compound 333, (S)-5-((R)-2-(difluoromethoxy)-4-methylpentanoyl)-N—((S)-3-oxo-1-((S)-2-oxopyrrolidin-3-yl)-4-(trifluoromethoxy)butan-2-yl)-5-azaspiro[2.4]heptane-6-carboxamide]", "values": [{"measurement": "EC50", "setting": "[1]", "result": "< 0.05", "unit": "µM"}]}
{"smiles": "COc1cccc2cc(C(=O)N[C@@H](CC(C)C)C(=O)N[C@@H](C[C@@H]3CCNC3=O)C(=O)COC(F)(F)F)oc12", "note": "[Compound 466, 7-methoxy-N-((S)-4-methyl-1-oxo-1-(((S)-3-oxo-1-((S)-2-oxopyrrolidin-3-yl)-4-(trifluoromethoxy)butan-2-yl)amino)pentan-2-yl)benzofuran-2-carboxamide]", "values": [{"measurement": "EC50", "setting": "[2]", "result": "< 0.05", "unit": "µM"}]}
{"smiles": "CC(C)C[C@H](NC(=O)C(=O)Nc1ccc(F)cc1)C(=O)N[C@@H](C[C@@H]1CCNC1=O)C(=O)COc1c(F)c(F)cc(F)c1F", "note": "[Compound 38, N1-(4-fluorophenyl)-N2-((S)-4-methyl-1-oxo-1-(((S)-3-oxo-1-((S)-2-oxopyrrolidin-3-yl)-4-(2,3,5,6-tetra-fluorophenoxy)butan-2-yl)amino)pentan-2-yl)oxalamide]", "values": [{"measurement": "EC50", "setting": "[1]", "result": "< 0.05", "unit": "µM"}]}
{"smiles": "O=C(NC1CC1)C(=O)N[C@@H](CC1CC1)C(=O)N[C@@H](C[C@@H]1CCNC1=O)C(=O)COC(F)(F)F", "note": "[Compound 586, N1-cyclopropyl-N2-((S)-3-cyclopropyl-1-oxo-1-(((S)-3-oxo-1-((S)-2-oxopyrrolidin-3-yl)-4-(trifluoromethoxy)butan-2-yl)amino)propan-2-yl)oxalamide]", "values": [{"measurement": "EC50", "setting": "[2]", "result": "< 0.05", "unit": "µM"}]}
{"smiles": "CC(C)(F)c1cc(C(=O)N2C[C@H]3[C@@H]([C@H]2C(=O)N[C@@H](C[C@@H]2CCNC2=O)C(=O)COc2c(F)c(F)cc(F)c2F)C3(C)C)no1", "note": "[Compound 284, (1R,2S,5S)-3-(5-(2-fluoropropan-2-yl)isoxazole-3-carbonyl)-6,6-dimethyl-N-((S)-3-oxo-1-((S)-2-oxopyrrolidin-3-yl)-4-(2,3,5,6-tetrafluorophenoxy)butan-2-yl)-3-azabicyclo-[3.1.0]hexane-2-carboxamide]", "values": [{"measurement": "EC50", "setting": "[1]", "result": "0.2 to 0.5", "unit": "µM"}]}
{"smiles": "CC(C)[C@@H](O)C(=O)N1C[C@@H]2CCC[C@@H]2[C@H]1C(=O)N[C@@H](C[C@@H]1CCNC1=O)C(=O)COC(F)(F)F", "note": "[Compound 359, (1S,3aR,6aS)-2-((R)-2-hydroxy-3-methylbutanoyl)-N-((S)-3-oxo-1-((S)-2-oxopyrrolidin-3-yl)-4-(trifluoromethoxy)butan-2-yl)octahydrocyclo-penta[c]pyrrole-1-carboxamide]", "values": [{"measurement": "EC50", "setting": "[1]", "result": "0.05 to 0.2", "unit": "µM"}]}
{"smiles": "CC(C)C[C@H](NC(=O)C12CC(NC(=O)C(F)(F)F)(CO1)C2)C(=O)N[C@@H](C[C@@H]1CCNC1=O)C(=O)COC(F)(F)F", "note": "[Compound 314, N-((S)-4-methyl-1-oxo-1-(((S)-3-oxo-1-((S)-2-oxopyrrolidin-3-yl)-4-(trifluoromethoxy)butan-2-yl)amino)pentan-2-yl)-4-(2,2,2-trifluoroacetamido)-2-oxabicyclo[2.1.1]-hexane-1-carboxamide]", "values": [{"measurement": "EC50", "result": "0.2 to 0.5", "unit": "µM"}]}
{"smiles": "CC(C)(C)NC(=O)C(=O)N1C[C@@H]2CC(F)(F)C[C@@H]2[C@H]1C(=O)N[C@@H](C[C@@H]1CCNC1=O)C(=O)COC(F)(F)F", "note": "[Compound 520, (1S,3aR,6aS)-2-(2-(tert-butylamino)-2-oxoacetyl)-5,5-difluoro-N-((S)-3-oxo-1-((S)-2-oxopyrrolidin-3-yl)-4-(trifluoromethoxy)butan-2-yl)octahydrocyclo-penta[c]pyrrole-1-carboxamide]", "values": [{"measurement": "EC50", "setting": "[2]", "result": "0.05 to 0.2", "unit": "µM"}]}
{"smiles": "CC(C)C[C@H](NC(=O)/C=C/c1ccccc1F)C(=O)N[C@@H](C[C@@H]1CCNC1=O)C(=O)COc1c(F)c(F)cc(F)c1F", "note": "[Compound 60, (S)-2-((E)-3-(2-fluorophenyl)acrylamido)-4-methyl-N-((S)-3-oxo-1-((S)-2-oxopyrrolidin-3-yl)-4-(2,3,5,6-tetrafluorophenoxy)butan-2-yl)pentanamide]", "values": [{"measurement": "EC50", "setting": "[1]", "result": "0.05 to 0.2", "unit": "µM"}]}
{"smiles": "O=C1NCC[C@H]1C[C@H](NC(=O)[C@@H]1CC2(CC2)CN1C(=O)C1CCC(F)(F)CC1)C(=O)COC(F)(F)F", "note": "[Compound 661, (S)-5-(4,4-difluorocyclohexane-1-carbonyl)-N-((S)-3-oxo-1-((S)-2-oxopyrrolidin-3-yl)-4-(trifluoromethoxy)butan-2-yl)-5-azaspiro[2.4]heptane-6-carboxamide]", "values": [{"measurement": "EC50", "setting": "[2]", "result": "0.05 to 0.2", "unit": "µM"}]}
{"smiles": "CC(C)C[C@H](NC(=O)C(=O)Nc1ccccc1Br)C(=O)N[C@@H](C[C@@H]1CCNC1=O)C(=O)COc1c(F)c(F)cc(F)c1F", "note": "[Compound 56, N1-(2-bromophenyl)-N2-((S)-4-methyl-1-oxo-1-(((S)-3-oxo-1-((S)-2-oxopyrrolidin-3-yl)-4-(2,3,5,6-tetrafluorophenoxy)butan-2-yl)amino)pentan-2-yl)oxalamide]", "values": [{"measurement": "EC50", "setting": "[1]", "result": "0.05 to 0.2", "unit": "µM"}]}
{"smiles": "CC1(C)[C@@H]2[C@@H](C(=O)N[C@@H](C[C@@H]3CCNC3=O)C(=O)COC(F)(F)F)N(C(=O)C(=O)Nc3ccccc3F)C[C@@H]21", "note": "[Compound 489, (1R,2S,5S)-3-(2-((2-fluorophenyl)amino)-2-oxoacetyl)-6,6-dimethyl-N-((S)-3-oxo-1-((S)-2-oxopyrrolidin-3-yl)-4-(trifluoromethoxy)butan-2-yl)-3-azabicyclo[3.1.0]-hexane-2-carboxamide]", "values": [{"measurement": "EC50", "setting": "[2]", "result": "< 0.05", "unit": "µM"}]}
{"smiles": "O=C1NCC[C@H]1C[C@H](NC(=O)[C@@H]1[C@H]2CCC[C@H]2CN1C(=O)c1noc2ccccc12)C(=O)COC(F)(F)F", "note": "[Compound 557, (1S,3aR,6aS)-2-(benzo[d]isoxazole-3-carbonyl)-N-((S)-3-oxo-1-((S)-2-oxopyrrolidin-3-yl)-4-(trifluoromethoxy)butan-2-yl)octahydro-cyclopenta[c]pyrrole-1-carboxamide]", "values": [{"measurement": "EC50", "setting": "[2]", "result": "< 0.05", "unit": "µM"}]}
{"smiles": "CC(C)C[C@H](NC(=O)C(=O)Nc1ccccc1F)C(=O)N[C@H](Cc1cnc[nH]1)C(=O)COc1c(F)c(F)cc(F)c1F", "note": "[Compound 136, Nl-((S)-1-(((R)-1-(1H-imidazol-5-yl)-3-oxo-4-(2,3,5,6-tetrafluorophenoxy)butan-2-yl)amino)-4-methyl-1-oxopentan-2-yl)-N2-(2-fluorophenyl)oxalamide]", "values": [{"measurement": "EC50", "setting": "[1]", "result": "0.5 to 1", "unit": "µM"}]}
{"smiles": "O=C(NCC(F)F)C(=O)N1C[C@@H]2CCC[C@@H]2[C@H]1C(=O)N[C@@H](C[C@@H]1CCNC1=O)C(=O)COC(F)(F)F", "note": "[Compound 519, (1S,3aR,6aS)-2-(2-((2,2-difluoroethyl)amino)-2-oxoacetyl)-N-((S)-3-oxo-1-((S)-2-oxopyrrolidin-3-yl)-4-(trifluoromethoxy)butan-2-yl)octahydrocyclo-penta[c]pyrrole-1-carboxamide]", "values": [{"measurement": "EC50", "setting": "[2]", "result": "0.2 to 0.5", "unit": "µM"}]}
{"smiles": "CC[C@@H](C)[C@@H](O)C(=O)N1C[C@@H]2CCC[C@@H]2[C@H]1C(=O)N[C@@H](C[C@@H]1CCNC1=O)C(=O)COC(F)(F)F", "note": "[Compound 379, (1S,3aR,6aS)-2-((2R,3R)-2-hydroxy-3-methylpentanoyl)-N-((S)-3-oxo-1-((S)-2-oxopyrrolidin-3-yl)-4-(trifluoromethoxy)butan-2-yl)octahydrocyclo-penta[c]pyrrole-1-carboxamide]", "values": [{"measurement": "EC50", "setting": "[1]", "result": "< 0.05", "unit": "µM"}]}
{"smiles": "CC(C)(C)C[C@H](NC(=O)C(=O)Nc1ccccc1F)C(=O)N[C@@H](C[C@@H]1CCNC1=O)C(=O)COC(F)(F)F", "note": "[Compound 528, N1-((S)-4,4-dimethyl-1-oxo-1-(((S)-3-oxo-1-((S)-2-oxopyrrolidin-3-yl)-4-(trifluoromethoxy)butan-2-yl)amino)pentan-2-yl)-N2-(2-fluorophenyl)-oxalamide]", "values": [{"measurement": "EC50", "setting": "[2]", "result": "< 0.05", "unit": "µM"}]}
{"smiles": "O=C1NCC[C@H]1C[C@H](NC(=O)[C@@H]1C[C@@H](c2ccccc2)CN1C(=O)[C@@H](O)c1ccccc1)C(=O)COC(F)(F)F", "note": "[Compound 780, (2S,4S)-1-((S)-2-hydroxy-2-phenylacetyl)-N-((S)-3-oxo-1-((S)-2-oxopyrrolidin-3-yl)-4-(trifluoromethoxy)butan-2-yl)-4-phenylpyrrolidine-2-carboxamide]", "values": [{"measurement": "EC50", "setting": "[2]", "result": "< 0.05", "unit": "µM"}]}
